Experimental data: US12325695B2, “5-(4-pyridyloxy)pyrazole compounds serving as TGF-βR1 kinase inhibitor” (JIANGSU AOSAIKANG PHARMACEUTICAL CO., LTD., priority 2019, dated 2025)
Each block holds one molecule with its values, some of them ahead of it.

Key:
[1] = tested on: pSmad; assay: Inhibitory activity assay on Smad phosphorylation (HEK-Blue-TGFβ cells, Quanti-Blue readout); type: cell-based; conditions: TGFβ stimulation, 24 hours, read-out: pSmad inhibition IC50
Procedure: Experimental Embodiment 1: Inhibitory Activity Assay on Smad Phosphorylation
Both HEK-Blue-TGFβ cells and Quanti-Blue reagent were purchased from Invivogen Company. TGFβ was purchased from PeproTech.
The compounds to be tested were diluted 5 times with a row gun to the 8th concentration, that is, diluted from 1 mmol/L to 12.8 nmol/L, the final concentration of dimethyl sulfoxide was 100%, and a double hole experiment was set up. 2 μL of inhibitors of each concentration gradient, 18 μL of TGFβ (20 ng/mL), and 180 μL of cell suspension (140,000 cells/mL) were added to the microplate. At this time, the final concentration gradient of the compound was […] diluted to 0.13 nmol/L. The cell plate was placed at 37° C. in a 5% CO2 incubator for 24 hours. After the reaction was completed, 40 μL of cell culture supernatant was taken out from each well to a new transparent microtiter plate, 160 μL of Quanti-Blue reagent was added to each well, and then the reaction was carried out at 37° C. for 60 minutes. After the reaction was completed, the PerkinElmer Envision multi-label analyzer was used to read the absorption light at 630 nm.
The original data was converted into the inhibition rate, and the IC50 value can be obtained by curve fitting with four parameters.

[2] = Pharmacokinetics study of cassette drug administration in vivo; parameters: species or system CD-1 male mice; conditions: male, mouse, plasma, CD-1 mice; for Vd: read-out: Vdss; for bioavailability: oral (1.5 mg/kg) vs injection (1 mg/kg), read-out: F (bioavailability)
Procedure: Experimental Embodiment 2: Pharmacokinetics Study of Cassette Drug Administration in Vivo
The purpose of this experiment is to evaluate the pharmacokinetic behavior of the compound after a single intravenous injection and intragastric administration, and to investigate the bioavailability after intragastric administration.
CD-1 male mice aged from 7 to 10 weeks were selected, and the doses for intravenous and oral administration were 1 mg/kg and 1.5 mg/kg, respectively. The mice were fasted for at least 12 hours before the administration, and resumed feeding 4 hours after the administration. The mice were free to drink during the entire experiment.
(§1) On the day of the experiment, animals in the intravenous group were given a single injection of the corresponding compound through the tail vein with a volume of 5 mL/kg; the oral group was given the corresponding compound by a single gavage with a volume of 5 mL/kg. The animals were weighed before administration, and the administration volume was calculated according to the body weight. Sample collection time: 0.083 hours, 0.25 hours, 0.5 hours, 1 hour, 2 hours, 4 hours, 8 hours, 24 hours in the injection group; 0.25 hours, 0.5 hours, 1 hour, 2 hours, 4 hours, 6 hours, 8 hours, 24 hours in the gavage group. Approximately 30 μL of whole blood was collected through the saphenous vein at each time point to prepare plasma for high-performance liquid chromatography-tandem mass spectrometry (LC-MS/MS) for concentration determination. All animals were euthanized by CO2 anesthesia after collecting PK samples at the last time point. The non-compartmental model of WinNonlin™ Version 6.3 (Pharsight, Mountain View, CA) pharmacokinetic software was used to process the plasma concentration, and the pharmacokinetic parameters were calculated using the linear and logarithmic trapezoidal method.

[3] = tested on: mouse colon cancer CT-26 cells; assay: Anti-tumor drug efficacy study, mouse colon cancer CT-26 cell BALB/c mouse subcutaneous allograft tumor model; type: in vivo, BALB/c mice; conditions: 50 mg/kg, twice a day, oral
Procedure: (§2) Experimental Embodiment 3: Anti-Tumor Drug Efficacy Study of Mouse Colon Cancer CT-26 Cell BALB/c Mouse Subcutaneous Allograft Tumor Model In Vivo
The main purpose of this study is to study the anti-tumor drug efficacy of the tested compounds on the CT26 mouse allograft tumor model.
(§3) Cell culture: mouse colon cancer CT-26 cells were cultured in monolayer in vitro, and the culture conditions were RPMI-1640 medium with 10% fetal bovine serum, 37° C. and 5% carbon dioxide incubator. Trypsin-ethylenediaminetetraacetic acid (EDTA) was used for routine digestion and passage twice a week. When the cell saturation was 80%-90% and the number reached the requirement, the cells were collected, counted, and inoculated.
(§4) Animals: BALB/c mice, female, 6-8 weeks old.
(§5) Tumor inoculation: 0.1 mL of DPBS cell suspension containing 3×10^5 CT26 cells was subcutaneously inoculated into the right groin of each mouse, and administration was started on the day of inoculation.
Experimental index: The experimental index was to investigate whether the tumor growth was inhibited, delayed or cured. The tumor diameter was measured with a vernier caliper twice a week. The calculation formula for tumor volume is: V=0.5 L×W^2, where L and W refer to the long diameter and short diameter of the tumor, respectively.

[4] = Pharmacokinetic studies in vivo (single compound); parameters: species or system CD-1 male mice; conditions: CD-1 mice; for AUC(0-t) / clearance / half-life / Vd / Cmax / Tmax: male, mouse, plasma; for Vd: read-out: Vdss
Procedure: Experiment 4: Pharmacokinetic Studies In Vivo
The purpose of this experiment is to evaluate the pharmacokinetic behavior of the compounds after a single intravenous injection and intragastric administration, and to investigate the bioavailability after intragastric administration.
[…] The mice were fasted for at least 12 hours before the administration, and resumed feeding 4 hours after the administration. The mice were free to drink during the entire experiment.
as §1, with “volume of 10 mL/kg. The” for “volume of 5 mL/kg. The”, “the injection group, 0.25 hours,” for “the injection group; 0.25 hours,”

[5] = Drug concentration in tumor tissue and plasma AUC in the CT26 tumor model study; type: in vivo, BALB/c mice; conditions: 50 mg/kg, twice a day, oral; for AUC: female, BALB/c, mouse, plasma
Procedure: as §2, §3, §4, §5

IC50 [1]: 268 nM
SMILES: Cc1cccc(-n2nc(C)cc2Oc2ccnc(Nc3ccnc(C(C)(C)O)c3)c2)n1 [Compound 9]

IC50 [1]: 432 nM
SMILES: COc1cccc(-n2nc(C)cc2Oc2ccnc(Nc3cccc(C(N)=O)c3)c2)n1 [Compound 12]

IC50 [1]: 166 nM
SMILES: NC(=O)c1cccc(Nc2cc(Oc3c4c(nn3C3CCOCC3)CCC4)ccn2)c1 [Compound 16]

AUC(0-t) ([2]; iv, injection (1 mg/kg)): 1.81 µM·h | clearance ([2]; iv, injection (1 mg/kg)): 24.9 mL/min/kg | half-life ([2]; iv, injection (1 mg/kg)): 1.32 h | Vd ([2]; iv, injection (1 mg/kg)): 1.05 L/kg | bioavailability [2]: 54.6% | AUC(0-t) ([2]; oral (1.5 mg/kg)): 1.45 µM·h | Cmax ([2]; oral (1.5 mg/kg)): 804 nM | Tmax ([2]; oral (1.5 mg/kg)): 0.25 h | half-life ([2]; oral (1.5 mg/kg)): 2.84 h | IC50 [1]: 79.2 nM
SMILES: Cc1cccc(-n2nc(C)cc2Oc2ccnc(Nc3cccc(C(N)=O)c3)c2)n1 [Compound 6]
% Inhibitory rate on Day 29 [3]: 73% | Mean tumor volume Day 29 [3]: 601.7 mm^3

IC50 [1]: 283 nM
SMILES: NC(=O)c1cccc(Nc2cc(Oc3cc(C4CC4)nn3C3CCOCC3)ccn2)c1 [Trifluoroacetate of compound 18]

IC50 [1]: 59.6 nM
SMILES: Cc1cccc(-n2nc3c(c2Oc2ccnc(Nc4cccc(C(N)=O)c4)c2)CCC3)n1 [Compound 13]

IC50 [1]: 621 nM
SMILES: NC(=O)c1cccc(Nc2cc(Oc3c4c(nn3C3CCOCC3)CCCC4)ccn2)c1 [Compound 17]

AUC(0-t) ([4]; iv, injection, 1 mg/kg): 1.34 µM·h | clearance ([4]; iv, injection, 1 mg/kg): 31.5 mL/min/kg | half-life ([4]; iv, injection, 1 mg/kg): 1.17 h | Vd ([4]; iv, injection, 1 mg/kg): 1.64 L/kg | AUC(0-t) ([4]; oral, 2.5 mg/kg): 2.7 µM·h | Cmax ([4]; oral, 2.5 mg/kg): 1560 nM | Tmax ([4]; oral, 2.5 mg/kg): 0.5 h | half-life ([4]; oral, 2.5 mg/kg): 1.15 h | F ([4]; oral 2.5 mg/kg vs injection 1 mg/kg): 80.9% | AUC(0-t) ([2]; iv, injection (1 mg/kg)): 1.06 µM·h | clearance ([2]; iv, injection (1 mg/kg)): 37 mL/min/kg | half-life ([2]; iv, injection (1 mg/kg)): 1.37 h | Vd ([2]; iv, injection (1 mg/kg)): 2.39 L/kg | bioavailability [2]: 75.9% | AUC(0-t) ([2]; oral (1.5 mg/kg)): 1.16 µM·h | Cmax ([2]; oral (1.5 mg/kg)): 567 nM | Tmax ([2]; oral (1.5 mg/kg)): 0.25 h | half-life ([2]; oral (1.5 mg/kg)): 1.61 h | Drug concentration in tumor tissue 1 hour after administration [5]: 11318 nmol/kg | Drug concentration in tumor tissue 12 hours after administration [5]: 820 nmol/kg | AUC [5]: 30.1 µM·h | IC50 [1]: 336 nM
SMILES: Cc1cc(Oc2ccnc(Nc3cccc(C(N)=O)c3)c2)n(C2CCOCC2)n1 [Compound 14]
% Inhibitory rate on Day 29 [3]: 81% | Mean tumor volume Day 29 [3]: 424.78 mm^3

IC50 [1]: 355 nM
SMILES: Cc1cccc(-n2nc(C)cc2Oc2ccnc(Nc3cnn(CCO)c3)c2)n1 [Compound 10]

IC50 [1]: 191 nM
SMILES: Cc1cccc(-n2nc(C)cc2Oc2ccnc(Nc3ccn(CC(C)(C)O)n3)c2)n1 [Compound 11]

IC50 [1]: 587 nM
SMILES: CC(C)c1cc(Oc2ccnc(Nc3cccc(C(N)=O)c3)c2)n(C2CCOCC2)n1 [Compound 19]

IC50 [1]: 65.5 nM
SMILES: Cc1cccc(-n2nc(C)cc2Oc2ccnc(Nc3cccc(C(N)=O)c3)c2)c1 [Compound 1]

AUC(0-t) ([4]; iv, injection, 1 mg/kg): 0.814 µM·h | clearance ([4]; iv, injection, 1 mg/kg): 56 mL/min/kg | half-life ([4]; iv, injection, 1 mg/kg): 0.45 h | Vd ([4]; iv, injection, 1 mg/kg): 1.31 L/kg | AUC(0-t) ([4]; oral, 5 mg/kg): 1.37 µM·h | Cmax ([4]; oral, 5 mg/kg): 1840 nM | Tmax ([4]; oral, 5 mg/kg): 0.25 h | half-life ([4]; oral, 5 mg/kg): 1.1 h | F ([4]; oral 5 mg/kg vs injection 1 mg/kg): 33.5% | AUC(0-t) ([2]; iv, injection (1 mg/kg)): 1.15 µM·h | clearance ([2]; iv, injection (1 mg/kg)): 37.3 mL/min/kg | half-life ([2]; iv, injection (1 mg/kg)): 0.477 h | Vd ([2]; iv, injection (1 mg/kg)): 0.679 L/kg | bioavailability [2]: 34.9% | AUC(0-t) ([2]; oral (1.5 mg/kg)): 0.586 µM·h | Cmax ([2]; oral (1.5 mg/kg)): 712 nM | Tmax ([2]; oral (1.5 mg/kg)): 0.25 h | half-life ([2]; oral (1.5 mg/kg)): 1.45 h | Drug concentration in tumor tissue 1 hour after administration [5]: 988 nmol/kg | Drug concentration in tumor tissue 12 hours after administration [5]: 180 nmol/kg | AUC [5]: 6.17 µM·h
SMILES: Cc1cccc(-c2nn3c(c2-c2ccnc4ccc(C(N)=O)cc24)CCC3)n1 [Compound A, Galunisertib, reference compound]
% Inhibitory rate on Day 29 [3]: 66% | Mean tumor volume Day 29 [3]: 758.19 mm^3

IC50 [1]: 354 nM
SMILES: Cc1cccc(-n2nc(C)cc2Oc2ccnc(Nc3cnn(CC(C)C)c3)c2)n1 [Compound 7]

IC50 [1]: 416 nM
SMILES: Cc1nn(C2CCOCC2)c(Oc2ccnc(Nc3cccc(C(N)=O)c3)c2)c1C [Compound 15]

IC50 [1]: 53.8 nM
SMILES: CCc1cc(Oc2ccnc(Nc3cccc(C(N)=O)c3)c2)n(-c2cccc(C)n2)n1 [Compound 4]

IC50 [1]: 247 nM
SMILES: Cc1cccc(-n2nccc2Oc2ccnc(Nc3cccc(C(N)=O)c3)c2)n1 [Compound 2]

IC50 [1]: 684 nM
SMILES: Cc1cccc(-n2nc(C)cc2Oc2ccnc(Nc3cnccn3)c2)n1 [Compound 8]

IC50 [1]: 441 nM
SMILES: Cc1cccc(-n2nc(C)cc2Oc2ccnc(Nc3cnn(CC(C)(C)O)c3)c2)n1 [Compound 5]

IC50 [1]: 54.3 nM
SMILES: Cc1cccc(-n2nc3c(c2Oc2ccnc(Nc4cccc(C(N)=O)c4)c2)CCCC3)n1 [Compound 3]
